Measured values from ChEMBL document CHEMBL1152723, “Remarkable enhancement in the DNA-binding ability of C2-fluoro substituted pyrrolo[2,1-c][1,4]benzodiazepines and their anticancer potential” (2009).

Assays:
DNA = assay: Binding affinity to calf thymus DNA assessed as change in melting temperature at a compound to DNA molar ratio of 1:5 at pH 7 by thermal denaturation assay; assay type: nucleic-acid assay; conditions: Bos taurus
[1] = target: T1, Type II restriction enzyme BamHI (Bacillus amyloliquefaciens) (UniProt P23940); assay: Inhibition of Bacillus amyloliquefaciens BamH1-mediated pBR322 cleavage after 16 hrs by RED100-restriction endonuclease digestion assay
T1 sequence (whole entry): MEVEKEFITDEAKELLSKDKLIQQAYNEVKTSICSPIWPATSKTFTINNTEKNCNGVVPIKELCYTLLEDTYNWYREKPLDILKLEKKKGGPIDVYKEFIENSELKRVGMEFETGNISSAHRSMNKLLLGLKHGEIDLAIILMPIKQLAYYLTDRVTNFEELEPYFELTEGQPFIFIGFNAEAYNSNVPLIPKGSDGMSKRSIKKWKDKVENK

OVCAR-8 = assay: Growth inhibition of human OVCAR8 cells after 48 hrs by sulforhodamine B protein assay; assay type: functional; conditions: OVCAR-8, 48 h
HOP-62 = assay: Growth inhibition of human HOP62 cells after 48 hrs by sulforhodamine B protein assay; assay type: functional; conditions: HOP-62, 48 h
HL-60(TB) = assay: Growth inhibition of human HL-60(TB) cells after 48 hrs by sulforhodamine B protein assay; assay type: functional; conditions: HL-60, 48 h
SK-OV-3 = assay: Growth inhibition of human SKOV3 cells after 48 hrs by sulforhodamine B protein assay; assay type: functional; conditions: SK-OV-3, 48 h
COLO 205 = assay: Growth inhibition of human COLO205 cells after 48 hrs by sulforhodamine B protein assay; assay type: functional; conditions: COLO 205, 48 h
IGROV-1 = assay: Growth inhibition of human IGROV1 cells after 48 hrs by sulforhodamine B protein assay; assay type: functional; conditions: IGROV-1, 48 h
MCF7 = assay: Growth inhibition of human MCF7 cells after 48 hrs by sulforhodamine B protein assay; assay type: functional; conditions: MCF7, 48 h
HCT-116 = assay: Growth inhibition of human HCT116 cells after 48 hrs by sulforhodamine B protein assay; assay type: functional; conditions: HCT-116, 48 h
OVCAR-5 = assay: Growth inhibition of human OVCAR5 cells after 48 hrs by sulforhodamine B protein assay; assay type: functional; conditions: OVCAR-5, 48 h
SR = assay: Growth inhibition of human SR cells after 48 hrs by sulforhodamine B protein assay; assay type: functional
OVCAR-3 = assay: Growth inhibition of human OVCAR-3 cells after 48 hrs by sulforhodamine B protein assay; assay type: functional; conditions: OVCAR-3, 48 h
HCC 2998 = assay: Growth inhibition of human HCC2998 cells after 48 hrs by sulforhodamine B protein assay; assay type: functional; conditions: HCC 2998, 48 h
CCRF-CEM = assay: Growth inhibition of human CCRF-CEM cells after 48 hrs by sulforhodamine B protein assay; assay type: functional
ACHN = assay: Growth inhibition of human ACHN cells after 48 hrs by sulforhodamine B protein assay; assay type: functional
NCI-H522 = assay: Growth inhibition of human NCI-H522 cells after 48 hrs by sulforhodamine B protein assay; assay type: functional; conditions: NCI-H522, 48 h
HT-29 = assay: Growth inhibition of human HT-29 cells after 48 hrs by sulforhodamine B protein assay; assay type: functional; conditions: HT-29, 48 h
UACC-62 = assay: Growth inhibition of human UACC62 cells after 48 hrs by sulforhodamine B protein assay; assay type: functional; conditions: UACC-62, 48 h
T47D = assay: Growth inhibition of human T47D cells after 48 hrs by sulforhodamine B protein assay; assay type: functional
RXF 393 = assay: Growth inhibition of human […] cells after 48 hrs by sulforhodamine B protein assay; assay type: functional; conditions: RXF 393, 48 h
MOLT-4 = assay: Growth inhibition of human MOLT4 cells after 48 hrs by sulforhodamine B protein assay; assay type: functional; conditions: MOLT-4, 48 h
LOX IMVI = assay: Growth inhibition of human LOXIMVI cells after 48 hrs by sulforhodamine B protein assay; assay type: functional
M14 = assay: Growth inhibition of human M14 cells after 48 hrs by sulforhodamine B protein assay; assay type: functional; conditions: M14, 48 h
NCI-H460 = assay: Growth inhibition of human NCI-H460 cells after 48 hrs by sulforhodamine B protein assay; assay type: functional; conditions: NCI-H460, 48 h
K562 = assay: Growth inhibition of human K562 cells after 48 hrs by sulforhodamine B protein assay; assay type: functional; conditions: K562, 48 h
KM12 = assay: Growth inhibition of human KM12 cells after 48 hrs by sulforhodamine B protein assay; assay type: functional; conditions: KM12, 48 h
786-0 = assay: Growth inhibition of human 786-0 cells after 48 hrs by sulforhodamine B protein assay; assay type: functional; conditions: 786-0, 48 h
SF-268 = assay: Growth inhibition of human SF268 cells after 48 hrs by sulforhodamine B protein assay; assay type: functional; conditions: SF-268, 48 h
SNB-75 = assay: Growth inhibition of human SNB75 cells after 48 hrs by sulforhodamine B protein assay; assay type: functional; conditions: SNB-75, 48 h
TK-10 = assay: Growth inhibition of human TK10 cells after 48 hrs by sulforhodamine B protein assay; assay type: functional; conditions: TK-10, 48 h
DU-145 = assay: Growth inhibition of human DU145 cells after 48 hrs by sulforhodamine B protein assay; assay type: functional; conditions: DU-145, 48 h
HOP-92 = assay: Growth inhibition of human HOP92 cells after 48 hrs by sulforhodamine B protein assay; assay type: functional; conditions: HOP-92, 48 h
PC-3 = assay: Growth inhibition of human PC3 cells after 48 hrs by sulforhodamine B protein assay; assay type: functional; conditions: PC-3, 48 h
U-251 = assay: Growth inhibition of human U251 cells after 48 hrs by sulforhodamine B protein assay; assay type: functional; conditions: U-251, 48 h
[2] = Growth inhibition of human Hs 578T cells after 48 hrs by sulforhodamine B protein assay; assay type: functional
NCI-H23 = assay: Growth inhibition of human NCI-H23 cells after 48 hrs by sulforhodamine B protein assay; assay type: functional; conditions: NCI-H23, 48 h
[3] = Growth inhibition of human […] cells after 48 hrs by sulforhodamine B protein assay; assay type: functional
MDA-MB-231 = assay: Growth inhibition of human MDA-MB-231 cells after 48 hrs by sulforhodamine B protein assay; assay type: functional; conditions: MDA-MB-231, 48 h
SN12C = assay: Growth inhibition of human SN12C cells after 48 hrs by sulforhodamine B protein assay; assay type: functional
SW-620 = assay: Growth inhibition of human SW620 cells after 48 hrs by sulforhodamine B protein assay; assay type: functional; conditions: SW-620, 48 h
Malme-3M = assay: Growth inhibition of human MALME-3M cells after 48 hrs by sulforhodamine B protein assay; assay type: functional
CAKI-1 = assay: Growth inhibition of human Caki1 cells after 48 hrs by sulforhodamine B protein assay; assay type: functional; conditions: CAKI-1, 48 h
SF-539 = assay: Growth inhibition of human SF539 cells after 48 hrs by sulforhodamine B protein assay; assay type: functional; conditions: SF-539, 48 h
A498 = assay: Growth inhibition of human A498 cells after 48 hrs by sulforhodamine B protein assay; assay type: functional; conditions: A498, 48 h
SK-MEL-28 = assay: Growth inhibition of human SK-MEL-28 cells after 48 hrs by sulforhodamine B protein assay; assay type: functional; conditions: SK-MEL-28, 48 h
MDA-MB-468 = assay: Growth inhibition of human MDA-MB-468 cells after 48 hrs by sulforhodamine B protein assay; assay type: functional; conditions: MDA-MB-468, 48 h
MDA-MB-435 = assay: Growth inhibition of human MDA-MB-435 cells after 48 hrs by sulforhodamine B protein assay; assay type: functional; conditions: MDA-MB-435, 48 h
SK-MEL-5 = assay: Growth inhibition of human SK-MEL-5 cells after 48 hrs by sulforhodamine B protein assay; assay type: functional; conditions: SK-MEL-5, 48 h
BT-549 = assay: Growth inhibition of human BT549 cells after 48 hrs by sulforhodamine B protein assay; assay type: functional; conditions: BT-549, 48 h
SNB-19 = assay: Growth inhibition of human SNB19 cells after 48 hrs by sulforhodamine B protein assay; assay type: functional; conditions: SNB-19, 48 h
A549 = assay: Growth inhibition of human A549 cells after 48 hrs by sulforhodamine B protein assay; assay type: functional; conditions: A549, 48 h

COc1cc2c(cc1OCCCCCN1CCN(CCCCCOc3cc4c(cc3OC)C(=O)N3CC(F)C[C@H]3C=N4)CC1)N=C[C@@H]1CC(F)CN1C2=O (stereo partly drawn)
ΔTm (DNA): 37 °C

COc1cc2c(cc1OCCCCN1CCN(CCCCOc3cc4c(cc3OC)C(=O)N3CC(F)C[C@H]3C=N4)CC1)N=C[C@@H]1CC(F)CN1C2=O (stereo partly drawn)
ΔTm (DNA): 38 °C

COc1cc2c(cc1OCCCN1CCN(CCCOc3cc4c(cc3OC)C(=O)N3CC(=C(F)F)C[C@H]3C=N4)CC1)N=C[C@@H]1CC(=C(F)F)CN1C2=O
ΔTm (DNA): 28.9 °C | Activity [1]: Dose-dependent effect

COc1cc2c(cc1OCCCCN1CCN(CCCCOc3cc4c(cc3OC)C(=O)N3CC(F)(F)C[C@H]3C=N4)CC1)N=C[C@@H]1CC(F)(F)CN1C2=O
ΔTm (DNA): 14 °C

C=C1C[C@H]2C=Nc3cc(OCCCOc4cc5c(cc4OC)C(=O)N4CC(=C)C[C@H]4C=N5)c(OC)cc3C(=O)N2C1
ΔTm (DNA): 25.7 °C

COc1cc2c(cc1OCCCN1CCN(CCCOc3cc4c(cc3OC)C(=O)N3CC(F)(F)C[C@H]3C=N4)CC1)N=C[C@@H]1CC(F)(F)CN1C2=O
GI50 (OVCAR-8): 6.3 µM | GI50 (HOP-62): 3.17 µM | ΔTm (DNA): 11 °C | GI50 (HL-60(TB)): 1.18 µM | GI50 (SK-OV-3): 8.64 µM | GI50 (COLO 205): 3.09 µM | GI50 (IGROV-1): 1.92 µM | GI50 (MCF7): 2.02 µM | GI50 (HCT-116): 3.59 µM | GI50 (OVCAR-5): 3.83 µM | GI50 (SR): 0.88 µM | GI50 (OVCAR-3): 3.55 µM | GI50 (HCC 2998): 5.4 µM | GI50 (CCRF-CEM): 0.97 µM | GI50 (ACHN): 5.64 µM | GI50 (NCI-H522): 1.14 µM | GI50 (HT-29): 3.61 µM | GI50 (UACC-62): 3.05 µM | GI50 (T47D): 3.25 µM | GI50 (RXF 393): 2.14 µM | Activity [1]: Dose-dependent effect | GI50 (MOLT-4): 2.02 µM | GI50 (LOX IMVI): 1.89 µM | GI50 (M14): 3.25 µM | GI50 (NCI-H460): 2.6 µM | GI50 (K562): 1.74 µM | GI50 (KM12): 4.1 µM | GI50 (786-0): 3.17 µM | GI50 (SF-268): 3.57 µM | GI50 (SNB-75): 5.52 µM | GI50 (TK-10): 4.38 µM | GI50 (DU-145): 3.63 µM | GI50 (HOP-92): 6.14 µM | GI50 (PC-3): 3.06 µM | GI50 (U-251): 3.36 µM | GI50 [2]: 2.32 µM | GI50 (NCI-H23): 4.66 µM | GI50 [3]: 2.2 µM | GI50 (MDA-MB-231): 4.29 µM | GI50 (SN12C): 4.05 µM | GI50 (SW-620): 2.61 µM | GI50 (Malme-3M): 2.8 µM | GI50 (CAKI-1): 3.31 µM | GI50 (SF-539): 3.05 µM | GI50 (A498): 2.43 µM | GI50 (SK-MEL-28): 1.86 µM | GI50 (MDA-MB-468): 1.38 µM | GI50 (MDA-MB-435): 2.94 µM | GI50 (SK-MEL-5): 4.28 µM | GI50 (BT-549): 1.95 µM | GI50 (SNB-19): 4.08 µM | GI50 (A549): 7.32 µM
